Organism: Rattus norvegicus
Assay: Open TG-GATES - Regimen: Daily Repeat
Type: toxicity, organism-based, Sprague-Dawley
Set-up: regimen Daily Repeat, gender Male, age 6 weeks
Conditions: in vivo, po, route gavage; for TC / TG / TP / gamma-GTP / A/G / ALP / ALT / AST / BUN / CRE / Ca / Cl / GLC / IP / K / LDH / Na / PL / RALB: tissue Plasma; for APTT / Bas / Eos / Fbg / Hb / Ht / Lym / MCH / MCHC / MCV / Mono / Neu / PT / Plat / RBC / Ret / WBC: tissue Blood; for KIDNEY_L / KIDNEY_R / KIDNEY_TOTAL: tissue Kidney; for LIVER: tissue Liver
[1] = 100 mg/kg, […], dose level Low, time 28 day
[2] = 300 mg/kg, 72 h, dose level Middle, time 3 day
[3] = 300 mg/kg, […], dose level Middle, time 7 day
[4] = 300 mg/kg, […], dose level Middle, time 14 day
[5] = 300 mg/kg, […], dose level Middle, time 28 day

SMILES: O=C(O)c1ccccc1Nc1ccccc1 [FENAMIC ACID]
- TC [1]: 76.6 mg/dL
- TG [1]: 129.6 mg/dL
- TP [1]: 6.2 g/dL
- gamma-GTP [1]: 1 IU/L
- TERMINAL_BW [2]: 241.8 g
- APTT [2]: 15.8 s
- Bas [2]: 0.4%
- Eos [2]: 1%
- Fbg [2]: 293.6 mg/dL
- Hb [2]: 13.4 g/dL
- Ht [2]: 40.1%
- Lym [2]: 74.2%
- MCH [2]: 20.9 pg
- MCHC [2]: 33.4%
- MCV [2]: 62.8 fL
- Mono [2]: 2.8%
- Neu [2]: 21.8%
- PT [2]: 14 s
- Plat [2]: 137.1 x10_4/uL
- RBC [2]: 639.6 x10_4/ul
- Ret [2]: 6.8%
- WBC [2]: 91.3 x10_2/uL
- KIDNEY_L [2]: 1 g
- KIDNEY_R [2]: 1 g
- KIDNEY_TOTAL [2]: 1.9 g
- LIVER [2]: 12 g
- A/G [2]: 0.9
- ALP [2]: 1538.8 IU/L
- ALT [2]: 37.4 IU/L
- AST [2]: 64.8 IU/L
- BUN [2]: 14.2 mg/dL
- CRE [2]: 0.2 mg/dL
- Ca [2]: 11.6 mg/dL
- Cl [2]: 105.8 meq/L
- GLC [2]: 183 mg/dL
- IP [2]: 6.4 mg/dL
- K [2]: 4.3 meq/L
- LDH [2]: 119.8 IU/L
- Na [2]: 142.8 meq/L
- PL [2]: 156 mg/dL
- RALB [2]: 2.7 g/dL
- TC [2]: 82.4 mg/dL
- TG [2]: 99.4 mg/dL
- TP [2]: 5.7 g/dL
- gamma-GTP [2]: 1.6 IU/L
- TERMINAL_BW [3]: 275.7 g
- TERMINAL_BW [4]: 344.9 g
- TERMINAL_BW [5]: 435 g
- APTT [3]: 16.6 s
- Bas [3]: 0.6%
- Eos [3]: 1.2%
- Fbg [3]: 313 mg/dL
- Hb [3]: 13.6 g/dL
- Ht [3]: 40.4%
- Lym [3]: 80.6%
- MCH [3]: 20.8 pg
- MCHC [3]: 33.7%
- MCV [3]: 61.5 fL
- Mono [3]: 2.4%
- Neu [3]: 15.2%
- PT [3]: 13.9 s
- Plat [3]: 137.6 x10_4/uL
- RBC [3]: 656.8 x10_4/ul
- Ret [3]: 6.2%
- WBC [3]: 89.7 x10_2/uL
- APTT [4]: 15.8 s
- Bas [4]: 0.8%
- Eos [4]: 0.8%
- Fbg [4]: 296 mg/dL
- Hb [4]: 14.4 g/dL
- Ht [4]: 42.2%
- Lym [4]: 79.8%
- MCH [4]: 20.1 pg
- MCHC [4]: 34.2%
- MCV [4]: 58.6 fL
- Mono [4]: 2.2%
- Neu [4]: 16.4%
- PT [4]: 13.8 s
- Plat [4]: 131.5 x10_4/uL
- RBC [4]: 719.6 x10_4/ul
- Ret [4]: 4.7%
- WBC [4]: 104.7 x10_2/uL
- APTT [5]: 17.6 s
- Bas [5]: 0.4%
- Eos [5]: 1.4%
- Fbg [5]: 314.2 mg/dL
- Hb [5]: 14.8 g/dL
- Ht [5]: 42.7%
- Lym [5]: 79.8%
- MCH [5]: 18.8 pg
- MCHC [5]: 34.7%
- MCV [5]: 54.1 fL
- Mono [5]: 2.6%
- Neu [5]: 15.8%
- PT [5]: 14.1 s
- Plat [5]: 119.3 x10_4/uL
- RBC [5]: 789.8 x10_4/ul
- Ret [5]: 2.7%
- WBC [5]: 92.3 x10_2/uL
- KIDNEY_L [3]: 1.3 g
- KIDNEY_R [3]: 1.2 g
- KIDNEY_TOTAL [3]: 2.5 g
- KIDNEY_L [4]: 1.4 g
- KIDNEY_R [4]: 1.4 g
- KIDNEY_TOTAL [4]: 2.7 g
- KIDNEY_L [5]: 1.5 g
- KIDNEY_R [5]: 1.5 g
- KIDNEY_TOTAL [5]: 3 g
- LIVER [3]: 13.4 g
- LIVER [4]: 16.2 g
- LIVER [5]: 19 g
- A/G [3]: 0.9
- ALP [3]: 1312 IU/L
- ALT [3]: 36.6 IU/L
- AST [3]: 63.4 IU/L
- BUN [3]: 26.8 mg/dL
- CRE [3]: 0.3 mg/dL
- Ca [3]: 11.8 mg/dL
- Cl [3]: 103.8 meq/L
- GLC [3]: 185 mg/dL
- IP [3]: 7 mg/dL
- K [3]: 4.6 meq/L
- LDH [3]: 108 IU/L
- Na [3]: 143.6 meq/L
- PL [3]: 150.4 mg/dL
- RALB [3]: 2.8 g/dL
- TC [3]: 80.8 mg/dL
- TG [3]: 91.6 mg/dL
- TP [3]: 6 g/dL
- gamma-GTP [3]: 1.6 IU/L
- A/G [4]: 0.8
- ALP [4]: 1463.6 IU/L
- ALT [4]: 36.8 IU/L
- AST [4]: 58.4 IU/L
- BUN [4]: 15.8 mg/dL
- CRE [4]: 0.3 mg/dL
- Ca [4]: 11.3 mg/dL
- Cl [4]: 104 meq/L
- GLC [4]: 178 mg/dL
- IP [4]: 6.5 mg/dL
- K [4]: 4 meq/L
- LDH [4]: 102.2 IU/L
- Na [4]: 144.2 meq/L
- PL [4]: 160.8 mg/dL
- RALB [4]: 2.8 g/dL
- TC [4]: 80.8 mg/dL
- TG [4]: 117.2 mg/dL
- TP [4]: 6.2 g/dL
- gamma-GTP [4]: 1.2 IU/L
- A/G [5]: 0.8
- ALP [5]: 942.2 IU/L
- ALT [5]: 31 IU/L
- AST [5]: 53.2 IU/L
- BUN [5]: 15.6 mg/dL
- CRE [5]: 0.3 mg/dL
- Ca [5]: 11.3 mg/dL
- Cl [5]: 103.8 meq/L
- GLC [5]: 186.6 mg/dL
- IP [5]: 6.7 mg/dL
- K [5]: 4 meq/L
- LDH [5]: 107.6 IU/L
- Na [5]: 144.6 meq/L
- PL [5]: 161.8 mg/dL
- RALB [5]: 2.9 g/dL
- TC [5]: 82.2 mg/dL
- TG [5]: 100.8 mg/dL
